Experimental data published in ChEMBL document CHEMBL1641398, “Norlignans, acylphloroglucinols, and a dimeric xanthone from Hypericum chinense” (2010).
In brackets after ≈: the same amount, converted by molar mass.

Experiments:
Assay type in all cases: functional
Staphylococcus aureus [1] = test: Antibacterial activity against multi drug-resistant Staphylococcus aureus 1199B after 18 hrs by MTT assay
Staphylococcus aureus [2] = test: Antibacterial activity against multi drug-resistant Staphylococcus aureus XU212 after 18 hrs by MTT assay; conditions: XU212, 18 h
Staphylococcus aureus [3] = test: Antibacterial activity against Staphylococcus aureus ATCC […] after 18 hrs by MTT assay
Staphylococcus aureus [4] = test: Antibacterial activity against erythromycin-resistant Staphylococcus aureus RN4220 after 18 hrs by MTT assay; conditions: RN4220, 18 h
Staphylococcus aureus [5] = test: Antibacterial activity against epidemic methicillin-resistant Staphylococcus aureus 15 after 18 hrs by MTT assay; conditions: Staphylococcus aureus, 15, 18 h
Staphylococcus aureus [6] = test: Antibacterial activity against epidemic methicillin-resistant Staphylococcus aureus 16 after 18 hrs by MTT assay; conditions: Staphylococcus aureus, 16, 18 h

Structure (SMILES) | MIC (Staphylococcus aureus [1]) | MIC (Staphylococcus aureus [2]) | MIC (Staphylococcus aureus [3]) | MIC (Staphylococcus aureus [4]) | MIC (Staphylococcus aureus [5]) | MIC (Staphylococcus aureus [6])
COc1cc(O)c(C(=O)CC(C)C)c(O)c1C [ASPIDINOL C] | 2 µg/mL (≈ 8.39 µM) | 32 µg/mL (≈ 134 µM) | 8 µg/mL (≈ 33.6 µM) | 16 µg/mL (≈ 67.1 µM) | 8 µg/mL (≈ 33.6 µM) | 4 µg/mL (≈ 16.8 µM)
CCC(C)C(=O)c1c(O)cc(OC)c(C)c1O (stereo not drawn) [ASPIDINOL D] | 4 µg/mL (≈ 16.8 µM) | 8 µg/mL (≈ 33.6 µM) | 8 µg/mL (≈ 33.6 µM) | 8 µg/mL (≈ 33.6 µM) | 4 µg/mL (≈ 16.8 µM) | 4 µg/mL (≈ 16.8 µM)
CCn1cc(C(=O)O)c(=O)c2cc(F)c(N3CCNCC3)cc21 [NORFLOXACIN] | 32 µg/mL (≈ 100 µM) | 8 µg/mL (≈ 25.1 µM) | 0.5 µg/mL (≈ 1.57 µM) | 0.5 µg/mL (≈ 1.57 µM) | 0.5 µg/mL (≈ 1.57 µM) | 128 µg/mL (≈ 401 µM)
